According to ChEMBL document CHEMBL4145513, “An overview on crystal structures of InhA protein: Apo-form, in complex with its natural ligands and inhibitors” (Eur J Med Chem, 2018):
Values after ≈ are worked out from the molar mass of the structure shown.

Tests used:
[1] = molecular target: T1, Enoyl-[acyl-carrier-protein] reductase [NADH] (Mycobacterium tuberculosis, UniProt P9WGR1); test: Inhibition of Mycobacterium tuberculosis InhA using dodecenoyl-CoA as substrate in presence of NADH by fluorimetric analysis
T1 sequence (P9WGR1 whole entry): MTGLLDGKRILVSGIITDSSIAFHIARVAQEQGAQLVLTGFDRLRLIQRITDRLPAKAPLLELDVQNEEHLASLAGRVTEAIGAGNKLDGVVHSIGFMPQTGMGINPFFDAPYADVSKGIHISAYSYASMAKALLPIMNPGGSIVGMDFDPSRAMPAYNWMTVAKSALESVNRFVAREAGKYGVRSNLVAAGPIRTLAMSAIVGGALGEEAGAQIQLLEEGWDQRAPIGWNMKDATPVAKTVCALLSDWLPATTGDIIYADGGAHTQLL

[2] = tested on: Mycobacterium tuberculosis; test: Antimycobacterial activity against Mycobacterium tuberculosis; assay type: functional
[3] = molecular target: T1, Enoyl-[acyl-carrier-protein] reductase [NADH]; test: Inhibition of Mycobacterium tuberculosis InhA
[4] = molecular target: T1, Enoyl-[acyl-carrier-protein] reductase [NADH]; test: Binding affinity to Mycobacterium tuberculosis InhA in presence of TCEP and NADH by isothermal titration calorimetry
[5] = molecular target: T1, Enoyl-[acyl-carrier-protein] reductase [NADH]; test: Inhibition of Mycobacterium tuberculosis InhA using trans-2-dodecenoyl-CoA as substrate
[6] = molecular target: T1, Enoyl-[acyl-carrier-protein] reductase [NADH]; test: Binding affinity to Mycobacterium tuberculosis InhA in presence of NADH by surface plasmon resonance assay
[7] = molecular target: T1, Enoyl-[acyl-carrier-protein] reductase [NADH]
[8] = tested on: Mycobacterium tuberculosis; test: Antimycobacterial activity against Mycobacterium tuberculosis after 5 days by fluoresence analysis; assay type: functional; conditions: 120 h
[9] = molecular target: T1, Enoyl-[acyl-carrier-protein] reductase [NADH]; test: Binding affinity to Mycobacterium tuberculosis InhA in presence of NAD+ by surface plasmon resonance assay
[10] = molecular target: T1, Enoyl-[acyl-carrier-protein] reductase [NADH]; test: Binding affinity to Mycobacterium tuberculosis InhA in presence of NADH
[11] = molecular target: T1, Enoyl-[acyl-carrier-protein] reductase [NADH]; test: Binding affinity to Mycobacterium tuberculosis InhA in presence of NAD+
[12] = molecular target: T1, Enoyl-[acyl-carrier-protein] reductase [NADH]; test: Inhibition of Mycobacterium tuberculosis InhA using trans-2-decenoyl-CoA as substrate by spectrophotometric analysis

`Cc1csc(C(C)(O)c2n[nH]/c(=N\C(=O)c3c(F)cccc3F)s2)n1` (centres undefined) showed an IC50 [1] of 200 nM and an MIC50 [2] of 3.75 µM (≈ 1.43 µg/mL).
`Oc1cc(CC2CCCCC2)ccc1Oc1ccc(Cl)cc1Cl` gave an IC50 [3] of 110 nM and an MIC50 [2] of 27 µM (≈ 9.48 µg/mL).
Work on `CCCCCCc1ccc(Oc2ccccc2Br)c(O)c1` yielded an IC50 [3] of 10 nM and an MIC50 [2] of 8.8 µM (≈ 3.07 µg/mL).
In the case of `Oc1cc(Cl)ccc1Oc1ccc(Cl)cc1Cl` [TRICLOSAN], the MIC99 [2] is reported as 43.1 µM (≈ 12.5 µg/mL).
`NNC(=O)c1ccncc1` [ISONIAZID] was tested, and the MIC [2] was 1.8 µM (≈ 0.247 µg/mL).
Compound `CCCc1cc(C(=O)c2cc[n+]([C@@H]3O[C@H](COP(=O)(O)OP(=O)(O)OC[C@H]4O[C@@H](n5cnc6c(N)ncnc65)[C@H](O)[C@@H]4O)[C@@H](O)[C@H]3O)cc2C(N)=O)ccn1` has a Ki [3] of 2 nM and an MIC50 [2] of 2.7 µM.
`O=c1[nH]c(CC2CCCCC2)cc(O)c1-c1ccccc1` was tested, and the Kd [4] was 560 nM, the IC50 [5] was 590 nM and the MIC50 [2] was 0.31 µM (≈ 0.0878 µg/mL).
Work on `CC1(C)CCC(Cc2cc(O)c(-c3ccccc3)c(=O)[nH]2)CC1` yielded an IC50 [5] of 570 nM and an MIC50 [2] of 0.08 µM (≈ 0.0249 µg/mL).
`Cc1ccn(C(C)c2nnc(Nc3ccn(Cc4c(F)cccc4Cl)n3)s2)n1` (centres undefined) showed a Ki [3] of 2 nM and an MIC50 [2] of 1 µM (≈ 0.418 µg/mL).
`CNC(=O)CN1CCN(C(=O)[C@H]2CC[C@@H](NC(=O)Cc3sc4ccccc4c3C)CC2)[C@@H](Cc2ccccc2)C1=O` gave a Kd [6] of 340 nM, an IC50 [7] of 65 nM and an MIC50 [8] of 13 µM (≈ 7.47 µg/mL). The Kd [9] was 13400 nM.
Compound `Cc1csc(C(C)(O)c2nnc(Nc3ccn(Cc4c(F)cccc4F)n3)s2)n1` (centres undefined) has a Kd [10] of 11.5 nM, a Kd [11] of 9300 nM and an IC50 [1] of 3 nM. The MIC50 [2] was 0.19 µM (≈ 0.0826 µg/mL).
Compound `NC(=O)c1c[n+]([C@@H]2O[C@H](COP(=O)(O)OP(=O)(O)OC[C@H]3O[C@@H](n4cnc5c(N)ncnc54)[C@H](O)[C@@H]3O)[C@@H](O)[C@H]2O)ccc1C(=O)c1ccncc1` has a Ki [12] of 0.75 nM.
In the case of `CCCCCCc1ccc(Oc2ccccc2[N+](=O)[O-])c(O)c1`, the MIC50 [2] is reported as 39.6 µM (≈ 12.5 µg/mL).
For `CCc1cc(C(=O)c2cc[n+]([C@@H]3O[C@H](COP(=O)(O)OP(=O)(O)OC[C@H]4O[C@@H](n5cnc6c(N)ncnc65)[C@H](O)[C@@H]4O)[C@@H](O)[C@H]3O)cc2C(N)=O)ccn1`, the Ki [3] was 7 nM and the MIC50 [2] was 3 µM.
Work on `CNC(=O)CN(Cc1ccc(F)cc1)C(=O)[C@H]1CC[C@@H](NC(=O)Cc2sc3ccccc3c2C)CC1` yielded a Kd [6] of 94 nM, an IC50 [7] of 600 nM and a Kd [9] of 46700 nM.
With `Oc1cc(CCc2ccccc2)ccc1Oc1ccc(Cl)cc1Cl` the IC50 [3] was 21 nM and the MIC50 [2] was 52 µM (≈ 18.7 µg/mL).
`CNC(=O)[C@@H]1C[C@H](NC(=O)[C@@H](NC(=O)c2ccc(Cn3cccn3)cc2)[C@@H](C)OC(C)(C)C)CN1C(=O)c1ccccc1` showed a Kd [6] of 55 nM, an IC50 [7] of 12000 nM and an MIC50 [8] of 0.13 µM (≈ 0.0765 µg/mL). The Kd [9] was 49000 nM.
`CNC(=O)c1cnc(NC2CCN(c3ccccn3)CC2)c(NCc2ccc(F)c(Oc3ccccc3)c2)c1` gave a Kd [6] of 250 nM, an IC50 [7] of 297 nM and an MIC50 [8] of 25 µM (≈ 13.2 µg/mL). For the same compound, the Kd [9] was over 100000 nM.
Compound `NC(=O)c1c[n+]([C@@H]2O[C@H](COP(=O)(O)OP(=O)(O)OC[C@H]3O[C@@H](n4cnc5c(N)ncnc54)[C@H](OP(=O)(O)O)[C@@H]3O)[C@@H](O)[C@H]2O)ccc1C(=O)c1ccncc1` has a Ki [3] of 130 nM.
`Oc1cc(Cc2ccccc2)ccc1Oc1ccc(Cl)cc1Cl` gave an IC50 [3] of 51 nM and an MIC50 [2] of 27 µM (≈ 9.32 µg/mL).
Compound `CCCCCCc1ccc(Oc2ccccc2C#N)c(O)c1` has a Ki [3] of 2.14 nM and an MIC50 [2] of 8.4 µM (≈ 2.48 µg/mL).
`CCCCCc1ccc(Oc2ccc(Cl)cc2Cl)c(O)c1` showed a Ki [3] of 11.8 nM and an MIC99 [2] of 3.5 µM (≈ 1.14 µg/mL).
`Cc1cc(C)n(Cc2ccc(C(=O)NCc3ccc(F)cc3Cl)cc2)n1` showed a Ki [3] of 50 nM and an MIC90 [2] of 10 µM (≈ 3.72 µg/mL).
In the case of `CCCCc1ccnc(Cc2ccc(Oc3ccc(Cl)cc3Cl)c(O)c2)c1`, the Ki [3] is reported as 1100 nM and the MIC99 [2] is reported as 6.4 µM (≈ 2.57 µg/mL).
Work on `CNC(=O)CN(C(=O)Cc1ccc(-n2cccn2)cc1)C1CCN(c2ccccn2)CC1` yielded a Kd [6] of 36.8 nM, an IC50 [7] of 5900 nM and an MIC50 [8] of 50 µM (≈ 21.6 µg/mL). The Kd [9] was over 100000 nM.
`CCCCCCc1ccc(Oc2ccccc2C)c(O)c1` was tested, and the MIC50 [2] was 10.9 µM (≈ 3.1 µg/mL).
`CCCCCCc1ccc(Oc2ccccc2Cl)c(O)c1` showed an MIC50 [2] of 5.1 µM (≈ 1.55 µg/mL).
